PMC6721765, “Synthesis of Daidzein Glycosides, α-Tocopherol Glycosides, Hesperetin Glycosides by Bioconversion and Their Potential for Anti-Allergic Functional-Foods and Cosmetics” (Molecules, 2019)
Where two headings read alike, the source gives them in different places.

How the values were obtained:
[1] = tested on: rat peritoneal mast cells; assay: Inhibition of compound 48/80-induced histamine release from rat peritoneal mast cells; format: cell-based; conditions: Mast cell
Protocol: The %inhibition of hesperetin 3′-β-glucoside (9) and hesperetin 7-β-glucoside (10) was higher than that of hesperetin (8). […] The inhibitory activity toward histamine release of hesperetin 7-β-gentiobioside (12) was stronger than hesperetin diglucoside 11. The anti-allergic activities were examined at pH 7.4 and 37 °C according to the reported methods. The pH and temperature of the reaction mixture may have an effect on anti-allergic activities. Effects of pH and temperature on anti-allergic activities of the obtained glycosides should be investigated and reported on in the near future.
The effects of daidzein, α-tocopherol, hesperetin, and their glycosides on compound 48/80-induced histamine release from rat peritoneal mast cells were examined as follows. Peritoneal mast cells were collected from the abdominal cavities of rats (Male Wistar rats, Nippon SLC) and purified to a level higher than 95%. The purified mast cells were suspended in a physiological buffered solution (PBS) containing 145 mM NaCl, 2.7 mM KCl, 1.0 mM CaCl2, 5.6 mM glucose, and 20 mM 4-(2-hydroxyethyl)-1-piperazineethanesulfonic acid (HEPES) (pH 7.4) to give approximately 10^4 mast cells/mL. Cell viability was always greater than 90% as judged by the trypan blue exclusion test. Mast cells were preincubated with the test compound (1 μM) for 15 min at 37 °C, and subsequently exposed to compound 48/80 at 0.35 μg/mL. Histamine release was determined by a fluorometric assay, and was expressed as a percentage of total histamine.

[2] = target: Mushroom tyrosinase (EC 1.14.18.1); assay: Tyrosinase assay (dopachrome formation at 475 nm); format: biochemical; conditions: L-DOPA or L-tyrosine as substrate, pH 6.8, 30 °C, mean ± standard deviation from triplicate experiments, read-out: Tyrosinase Inhibitory Activity IC50
Protocol: Mushroom tyrosinase (EC 1.14.18.1) (Sigma-Aldrich Chemical Co., St. Louis, MO, USA) was used for the tyrosinase assay, with either L-DOPA or L-tyrosine as a substrate. In spectrophotometric experiments, enzyme activity was taken as the initial velocity (Vi) monitored by observing dopachrome formation at 475 nm with a UV spectrophotometer at 30 °C. All samples were dissolved in ethanol at 10 mM. First, 200 μL of a 2.7 mM L-tyrosine or 5.4 mM L-DOPA aqueous solution was mixed with 2687 μL of 0.25 M phosphate buffer (pH 6.8). Next, 100 μL of the sample solution and 13 μL of the same phosphate buffer solution containing mushroom tyrosinase (144 units) were added to the mixture.

[3] = test compound 1 μM, preincubated 15 min at 37 °C, pH 7.4, compound 48/80 at 0.35 μg/mL, Male Wistar rat peritoneal mast cells, read-out: Histamine Release-Inhibiting Activity / %inhibition
[4] = Rattus norvegicus, pH 7.4, read-out: Histamine Release-Inhibiting Activity / %inhibition

Row | SMILES | inhibition at 1 µM [1, 3] | IC50 [2] | inhibition at 1 µM [1, 4]
1 | O=c1c(-c2ccc(O)cc2)coc2cc(O)ccc12 [Compound 1, daidzein] | 58% | 392 ± 88 µM | –
2 | O=c1c(-c2ccc(O)cc2)coc2cc(OC3OC(CO)C(O)C(O)C3O)ccc12 (stereo not drawn) [Compound 2, daidzein 7-β-glucoside] | – | 303 ± 45 µM | 62%
3 | O=c1c(-c2ccc(O)cc2)coc2cc(OC3OC(COC4OC(CO)C(O)C(O)C4O)C(O)C(O)C3O)ccc12 (stereo not drawn) [Compound 3, daidzein 7-β-gentiobioside] | 67% | 280 ± 33 µM | –
4 | O=c1c(-c2ccc(O[C@@H]3O[C@H](CO)[C@H](O)[C@H](O)[C@H]3O)cc2)coc2cc(O)ccc12 [Compound 4, daidzein 4′-β-galactoside] | 70% | 125 ± 41 µM | –
5 | O=c1c(-c2ccc(O)cc2)coc2cc(O[C@@H]3O[C@H](CO)[C@H](O)[C@H](O)[C@H]3O)ccc12 [Compound 5, daidzein 7-β-galactoside] | – | 102 ± 39 µM | 76%
6 | Cc1c(C)c2c(c(C)c1O)CC[C@@](C)(CCC[C@H](C)CCC[C@H](C)CCCC(C)C)O2 [Compound 6, α-tocopherol] | 61% | 510 ± 108 µM | –
7 | Cc1c(C)c2c(c(C)c1O[C@@H]1O[C@H](CO)[C@H](O)[C@H](O)[C@H]1O)CC[C@@](C)(CCC[C@H](C)CCC[C@H](C)CCCC(C)C)O2 [Compound 7, α-tocopherol 6-β-galactoside] | 82% | 54 ± 25 µM | –
8 | COc1ccc([C@@H]2CC(=O)c3c(O)cc(O)cc3O2)cc1O [Compound 8, hesperetin] | 38% | 437 ± 76 µM | –
9 | COc1ccc(C2CC(=O)c3c(O)cc(O)cc3O2)cc1OC1OC(CO)C(O)C(O)C1O (stereo not drawn) [Compound 9, hesperetin 3′-β-glucoside] | 40% | 355 ± 32 µM | –
10 | COc1ccc(C2CC(=O)c3c(O)cc(OC4OC(CO)C(O)C(O)C4O)cc3O2)cc1O (stereo not drawn) [Compound 10, hesperetin 7-β-glucoside] | 45% | 318 ± 27 µM | –
11 | COc1ccc(C2CC(=O)c3c(O)cc(OC4OC(CO)C(O)C(O)C4O)cc3O2)cc1OC1OC(CO)C(O)C(O)C1O (stereo not drawn) [Compound 11, hesperetin 3′,7-β-diglucoside] | 63% | 176 ± 35 µM | –
12 | COc1ccc(C2CC(=O)c3c(O)cc(OC4OC(COC5OC(CO)C(O)C(O)C5O)C(O)C(O)C4O)cc3O2)cc1O (stereo not drawn) [Compound 12, hesperetin 7-β-gentiobioside] | 69% | 139 ± 14 µM | –
13 | O=c1c(O)c(-c2ccc(O)cc2)oc2cc(O)cc(O)c12 [Kaempferol, reference compound] | 80% | – | –
